We go through 25 compounds from US10160747B2, “Compounds and methods for kinase modulation, and indications therefor” (Plexxikon Inc., priority 2016, dated 2018).

Structures are written as SMILES.

The target of the experiment is T1, BA/F3-FLT3-ITD + D835Y (Homo sapiens, UniProt P36888, D835Y, cells depend on it, form not given).
T1 sequence (P36888 with tags, fused parts or gaps INS600HVDFREYEYD/D835Y): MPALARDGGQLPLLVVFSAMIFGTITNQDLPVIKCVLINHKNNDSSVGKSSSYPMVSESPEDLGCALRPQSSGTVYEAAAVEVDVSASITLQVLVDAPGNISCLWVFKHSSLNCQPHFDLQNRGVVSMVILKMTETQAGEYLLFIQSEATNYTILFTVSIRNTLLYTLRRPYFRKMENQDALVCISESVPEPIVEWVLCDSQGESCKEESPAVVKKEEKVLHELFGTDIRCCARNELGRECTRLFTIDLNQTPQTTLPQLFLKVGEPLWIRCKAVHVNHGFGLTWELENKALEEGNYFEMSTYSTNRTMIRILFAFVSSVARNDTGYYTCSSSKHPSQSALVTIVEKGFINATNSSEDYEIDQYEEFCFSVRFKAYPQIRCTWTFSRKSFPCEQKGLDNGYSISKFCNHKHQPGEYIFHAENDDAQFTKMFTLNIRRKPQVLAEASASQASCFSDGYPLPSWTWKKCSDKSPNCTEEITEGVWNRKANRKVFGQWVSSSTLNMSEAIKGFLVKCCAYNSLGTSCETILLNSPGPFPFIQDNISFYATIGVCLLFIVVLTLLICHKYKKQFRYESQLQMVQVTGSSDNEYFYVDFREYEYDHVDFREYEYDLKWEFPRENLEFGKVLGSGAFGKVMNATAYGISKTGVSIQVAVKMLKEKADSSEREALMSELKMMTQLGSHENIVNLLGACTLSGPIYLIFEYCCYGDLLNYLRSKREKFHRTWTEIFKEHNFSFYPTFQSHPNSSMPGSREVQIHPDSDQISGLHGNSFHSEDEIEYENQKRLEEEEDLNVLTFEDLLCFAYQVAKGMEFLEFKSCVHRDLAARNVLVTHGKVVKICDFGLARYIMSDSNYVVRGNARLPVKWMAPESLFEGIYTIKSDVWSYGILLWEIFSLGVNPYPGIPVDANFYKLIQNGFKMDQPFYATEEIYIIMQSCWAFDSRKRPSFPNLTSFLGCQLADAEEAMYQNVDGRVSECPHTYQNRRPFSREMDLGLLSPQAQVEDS
Nature of the experiment: Engineered BA/F3 cell growth assay, FLT3 ITD/D835Y. The class given is cell-based, murine. To be noted: 3 d growth. The procedure, abridged: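 Murine Ba/F3 cells transfected with full-length FLT3 ITD/D835Y, grown without IL-3 so growth depends on FLT3. Seeded at 1×10^4 cells/well, 8-point 1:3 series to 1 μM top (0.2% DMSO), 3 days at 37 °C. CellTiter-Glo luminescence (ATP) versus concentration gave IC50.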

For `COCCn1cc(Nc2ncc(-c3ccc(CC(=O)Nc4ccc(C(F)(F)F)nc4)c(F)c3)cn2)cn1` [Compound P-0268, 2-[2-fluoro-4-[2-[[1-(2-methoxyethyl)pyrazol-4-yl]amino]pyrimidin-5-yl]phenyl]-N-[6-(trifluoromethyl)-3-pyridyl]acetamide], the GI50 lay within 0.0001 to 10 µM.

Turning to `COCCn1cc(Nc2ncc(-c3ccc(CC(=O)Nc4cnc(OC)c(C(F)(F)F)c4)cc3)cn2)cn1` [Compound P-0271, 2-[4-[2-[[1-(2-methoxyethyl)pyrazol-4-yl]amino]pyrimidin-5-yl]phenyl]-N-[6-methoxy-5-(trifluoromethyl)-3-pyridyl]acetamide], the GI50 was 0.0001 to 10 µM.

Turning to `COCCn1cc(Nc2ncc(-c3ccc(CC(=O)Nc4ccc(C(F)(F)F)nc4)cc3)cn2)cn1` [Compound P-0273, 2-[4-[2-[[1-(2-methoxyethyl)pyrazol-4-yl]amino]pyrimidin-5-yl]phenyl]-N-[6-(trifluoromethyl)-3-pyridyl]acetamide], the GI50 is 0.0001 to 10 µM.

`CCOc1n[nH]c2ncc(-c3ccc(CC(=O)Nc4cnc(OC)c(C(F)(F)F)c4)cc3)cc12` [Compound P-0213, 2-(4-(3-ethoxy-1H-pyrazolo[3,4-b]pyridin-5-yl)phenyl)-N-(6-methoxy-5-(trifluoromethyl)pyridin-3-yl)acetamide]: the GI50 fell in the range of 0.0001 to 10 µM.

`Cn1cnc(Nc2ncc(-c3ccc(CC(=O)Nc4cc(C(F)(F)F)ccn4)cc3F)cn2)c1` [Compound P-0018, 2-[3-fluoro-4-[2-[(1-methylimidazol-4-yl)amino]pyrimidin-5-yl]phenyl]-N-[4-(trifluoromethyl)-2-pyridyl]acetamide]: the GI50 was in the range of 0.0001 to 10 µM.

Take `CCn1cc(Nc2ncc(-c3ccc(CC(=O)Nc4cnc(OC)c(C(F)(F)F)c4)c(F)c3)cn2)cn1` [Compound P-0259, 2-[4-[2-[(1-ethylpyrazol-4-yl)amino]pyrimidin-5-yl]-2-fluoro-phenyl]-N-[6-methoxy-5-(trifluoromethyl)-3-pyridyl]acetamide]: the GI50 is 0.0001 to 10 µM.

On to `CCn1cc(Nc2ncc(-c3ccc(CC(=O)Nc4cnc(C)c(C(F)(F)F)c4)cc3)cn2)cn1` [Compound P-0254, 2-[4-[2-[(1-ethylpyrazol-4-yl)amino]pyrimidin-5-yl]phenyl]-N-[6-methyl-5-(trifluoromethyl)-3-pyridyl]acetamide], for which the GI50 lay in the range of 0.0001 to 10 µM.

Take `CCn1cc(Nc2ncc(-c3ccc(CC(=O)Nc4ccc(C(F)(F)F)cn4)cc3)cn2)cn1` [Compound P-0251, 2-[4-[2-[(1-ethylpyrazol-4-yl)amino]pyrimidin-5-yl]phenyl]-N-[5-(trifluoromethyl)-2-pyridyl]acetamide]: the GI50 lay within 0.0001 to 10 µM.

Turning to `O=C(Cc1ccc(-c2cnc(Nc3cnn(C(F)F)c3)nc2)cc1)Nc1cc(C(F)(F)F)ccn1` [Compound P-0023, 2-[4-[2-[[1-(difluoromethyl)pyrazol-4-yl]amino]pyrimidin-5-yl]phenyl]-N-[4-(trifluoromethyl)-2-pyridyl]acetamide], the GI50 is 0.0001 to 10 µM.

As to `CCn1cc(Nc2ncc(-c3ccc(CC(=O)Nc4cnc(OC)c(C(F)(F)F)c4)cc3F)cn2)cn1` [Compound P-0246, 2-[4-[2-[(1-ethylpyrazol-4-yl)amino]pyrimidin-5-yl]-3-fluoro-phenyl]-N-[6-methoxy-5-(trifluoromethyl)-3-pyridyl]acetamide], the 50% growth inhibitory concentration (GI50) is 0.0001 to 10 µM.

On to `COCCn1cc(Nc2ncc(-c3ccc(CC(=O)Nc4cnc(OC)c(C(F)(F)F)c4)c(F)c3)cn2)cn1` [Compound P-0265, 2-[2-fluoro-4-[2-[[1-(2-methoxyethyl)pyrazol-4-yl]amino]pyrimidin-5-yl]phenyl]-N-[6-methoxy-5-(trifluoromethyl)-3-pyridyl]acetamide], for which the GI50 was 0.0001 to 10 µM.

Regarding `O=C(Cc1ccc(-c2cnc(Nc3cnn(C4CC4)c3)nc2)cc1F)Nc1cc(C(F)(F)F)ccn1` [Compound P-0244, 2-[4-[2-[(1-cyclopropylpyrazol-4-yl)amino]pyrimidin-5-yl]-2-fluoro-phenyl]-N-[4-(trifluoromethyl)-2-pyridyl]acetamide], the GI50 lay within 0.0001 to 10 µM.

Turning to `COc1ncc(NC(=O)Cc2ccc(-c3cnc(Nc4cnn(C)c4)nc3)c(F)c2)cc1C(F)(F)F` [Compound P-0206, 2-[3-fluoro-4-[2-[(1-methylpyrazol-4-yl)amino]pyrimidin-5-yl]phenyl]-N-[6-methoxy-5-(trifluoromethyl)-3-pyridyl]acetamide], the GI50 was in the range of 0.0001 to 10 µM.

`COCCn1cc(Nc2ncc(-c3ccc(CC(=O)Nc4ccc(C(F)(F)F)cn4)c(F)c3)cn2)cn1` [Compound P-0269, 2-[2-fluoro-4-[2-[[1-(2-methoxyethyl)pyrazol-4-yl]amino]pyrimidin-5-yl]phenyl]-N-[5-(trifluoromethyl)-2-pyridyl]acetamide]: the GI50 is 0.0001 to 10 µM.

For the compound `O=C(Cc1ccc(-c2cnc(Nc3cnn(C4CC4)c3)nc2)cc1)Nc1cncc(C(F)(F)F)c1` [Compound P-0231, 2-[4-[2-[(1-cyclopropylpyrazol-4-yl)amino]pyrimidin-5-yl]phenyl]-N-[5-(trifluoromethyl)-3-pyridyl]acetamide], the concentration for 50% growth inhibition (GI50) is 0.0001 to 10 µM.

For the compound `COc1ncc(NC(=O)Cc2ccc(-c3cnc4[nH]nc(C5CC5)c4c3)cc2)cc1C(F)(F)F` [Compound P-0263, 2-[4-(3-cyclopropyl-1H-pyrazolo[3,4-b]pyridin-5-yl)phenyl]-N-[6-methoxy-5-(trifluoromethyl)-3-pyridyl]acetamide], the GI50 is 0.0001 to 10 µM.

Take `COc1ncc(NC(=O)Cc2ccc(-c3cnc4[nH]c(-c5ccnc(C#N)c5)cc4c3)c(F)c2)cc1C(F)(F)F` [Compound P-0016, 2-[4-[2-(2-cyano-4-pyridyl)-1H-pyrrolo[2,3-b]pyridin-5-yl]-3-fluoro-phenyl]-N-[6-methoxy-5-(trifluoromethyl)-3-pyridyl]acetamide]: the GI50 was 0.0001 to 10 µM.

With `COc1ncc(NC(=O)Cc2ccc(-c3cnc4[nH]nc(N)c4c3)c(F)c2)cc1C(F)(F)F` [Compound P-0203, 2-[4-(3-amino-1H-pyrazolo[3,4-b]pyridin-5-yl)-3-fluoro-phenyl]-N-[6-methoxy-5-(trifluoromethyl)-3-pyridyl]acetamide], the 50% growth inhibitory concentration (GI50) is 0.0001 to 10 µM.

Turning to `COc1ncc(NC(=O)Cc2ccc(-c3cnc(Nc4cnn(C5CC5)c4)nc3)cc2)cc1C(F)(F)F` [Compound P-0234, 2-[4-[2-[(1-cyclopropylpyrazol-4-yl)amino]pyrimidin-5-yl]phenyl]-N-[6-methoxy-5-(trifluoromethyl)-3-pyridyl]acetamide], the 50% growth inhibitory concentration (GI50) lay within 0.0001 to 10 µM.

On to `Cc1ncc(NC(=O)Cc2ccc(-c3cnc(Nc4cnn(C5CC5)c4)nc3)cc2)cc1C(F)(F)F` [Compound P-0232, 2-[4-[2-[(1-cyclopropylpyrazol-4-yl)amino]pyrimidin-5-yl]phenyl]-N-[6-methyl-5-(trifluoromethyl)-3-pyridyl]acetamide], for which the concentration for 50% growth inhibition (GI50) was 0.0001 to 10 µM.

For the compound `COc1ncc(NC(=O)Cc2ccc(-c3cnc4[nH]c(-c5ccnc(C#N)c5)cc4c3)cc2F)cc1C(F)(F)F` [Compound P-0013, 2-[4-[2-(2-cyano-4-pyridyl)-1H-pyrrolo[2,3-b]pyridin-5-yl]-2-fluoro-phenyl]-N-[6-methoxy-5-(trifluoromethyl)-3-pyridyl]acetamide], the GI50 lay within 0.0001 to 10 µM.

For the compound `COc1ncc(NC(=O)Cc2ccc(-c3cnc4[nH]c(C#CC(C)(C)C)cc4c3)cc2)cc1C(F)(F)F` [Compound P-0219, 2-[4-[2-(3,3-dimethylbut-1-ynyl)-1H-pyrrolo[2,3-b]pyridin-5-yl]phenyl]-N-[6-methoxy-5-(trifluoromethyl)-3-pyridyl]acetamide], the GI50 fell in the range of 0.0001 to 10 µM.

Consider `O=C(Cc1ccc(-c2cnc(Nc3cnn(C4CC4)c3)nc2)cc1F)Nc1cncc(C(F)(F)F)c1` [Compound P-0238, 2-[4-[2-[(1-cyclopropylpyrazol-4-yl)amino]pyrimidin-5-yl]-2-fluoro-phenyl]-N-[5-(trifluoromethyl)-3-pyridyl]acetamide], for which the GI50 was 0.0001 to 10 µM.

With `Cc1ncc(NC(=O)Cc2ccc(-c3cnc(Nc4cnn(C(F)F)c4)nc3)cc2)cc1C(F)(F)F` [Compound P-0210, 2-[4-[2-[[1-(difluoromethyl)pyrazol-4-yl]amino]pyrimidin-5-yl]phenyl]-N-[6-methyl-5-(trifluoromethyl)-3-pyridyl]acetamide], the GI50 was 0.0001 to 10 µM.

In the case of `CCOc1n[nH]c2ncc(-c3ccc(CC(=O)Nc4cnc(OC)c(C(F)(F)F)c4)cc3F)cc12` [Compound P-0202, 2-[4-(3-ethoxy-1H-pyrazolo[3,4-b]pyridin-5-yl)-3-fluoro-phenyl]-N-[6-methoxy-5-(trifluoromethyl)-3-pyridyl]acetamide], the GI50 lay within 0.0001 to 10 µM.
